# In BindingDB's records for doi:10.1016/j.ejmech.2023.115410 (Jawaharlal Nehru University, 2023):
# How the values were obtained:
# [1] = Inhibition of […] Influenza A Taiwan 3446 2002(H3N2) neuraminidase infected in dog MDCK cells using MU-NANA as substrate assessed as reduction in viral replication incubated for 72 hrs by spectrofluorometric analysis
# [2] = Inhibition of avian Influenza A virus SN 33 (H1N1) neuraminidase infected in dog MDCK cells using MU-NANA as substrate assessed as reduction in viral replication incubated for 72 hrs by spectrofluorometric analysis
Compound,IC50 [1] [nM],IC50 [2] [nM]
CC(=O)N[C@H]1[C@H]([C@H](O)[C@H](O)CO)OC(C(=O)O)=C[C@@H]1NC(=N)NC(=O)CSc1ccc2ccccc2c1,25,20
CC(=O)N[C@H]1[C@H]([C@H](O)[C@H](O)CO)OC(C(=O)O)=C[C@@H]1NC(=N)NC(=O)CCc1ccc2ccccc2c1,67,75
